Data set [1] addresses T1, human H4 receptor (Homo sapiens, UniProt Q9H3N8).
T1 construct: expressed in transfected cells
Description: [3H]Histamine binding on membranes of CHO cells stably expressing human H4 receptor. The procedure, abridged:
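Membranes from sub-confluent CHO-hH4 cells, 20 μg protein per well, were incubated in 50 mM Tris/HCl, 0.5 mM EDTA, pH 7.4. Nonspecific binding was defined with 10 μM JNJ 7777120. Bound radioactivity was collected on PEI-soaked GF/B filters and counted by liquid scintillation.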

T1 sequence (Q9H3N8 whole entry): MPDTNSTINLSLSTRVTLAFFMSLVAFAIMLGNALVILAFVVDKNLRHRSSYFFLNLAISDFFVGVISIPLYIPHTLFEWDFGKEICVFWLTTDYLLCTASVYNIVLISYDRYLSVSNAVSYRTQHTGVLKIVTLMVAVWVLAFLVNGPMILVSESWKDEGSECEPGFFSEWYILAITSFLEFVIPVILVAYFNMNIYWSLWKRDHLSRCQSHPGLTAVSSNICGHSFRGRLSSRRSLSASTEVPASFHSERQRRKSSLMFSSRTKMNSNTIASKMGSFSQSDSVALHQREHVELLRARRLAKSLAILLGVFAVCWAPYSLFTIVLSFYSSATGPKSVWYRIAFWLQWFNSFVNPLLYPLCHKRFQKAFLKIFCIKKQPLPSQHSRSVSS

`CN1CCC(OC(c2nc3ccccc3[nH]2)c2cc(O)ccc2O)CC1` (centres unmarked) [Example 618] displayed a melting point of 189 °C. The same molecule showed a Ki or IC50 activity class in data set [1] of less than 0.03 µM.
The matching figures for `CN1CCC(OC(c2nc3ccccc3[nH]2)c2cc(C(F)(F)F)ccc2O)CC1` (centres unmarked) [Example 598]: 135 °C and less than 0.3 µM.
The matching figures for `CN1CCC(OC(c2nc3ccccc3[nH]2)c2cc(Cl)cc(F)c2O)CC1` (centres unmarked) [Example 599]: 146 °C and less than 0.3 µM.
The matching figures for `C=Cc1cccc(C(OC2CCN(C)CC2)c2nc3ccccc3s2)c1` (centres unmarked) [Example 218, 2-[(1-methylpiperidin-4-yloxy)(3-vinyl-phenyl)methyl]benzothiazole]: 165 °C and less than 0.03 µM.
Molecule `CN1CCC(OC(c2nc3ccccc3[nH]2)c2ccc(F)c(F)c2O)CC1` (centres unmarked) [Example 625, 6-[(1H-benzimidazol-2-yl)(1-methylpiperidin-4-yloxy)methyl]-2,3-difluorophenol] registered a melting point of 184 °C. In data set [1], the Ki or IC50 activity class was less than 0.03 µM.
In turn, `CCOc1ccc(F)c(C(OC2CCN(C)CC2)c2nc3ccccc3[nH]2)c1F` (centres unmarked) [Example 535] showed a melting point of 130 °C. The molecule also returned a Ki or IC50 activity class in data set [1] of less than 0.3 µM.
The matching figures for `CCOC(=O)NCCCC#Cc1ccc(F)c(C(OC2CCN(C)CC2)c2nc3cc(F)ccc3[nH]2)c1` (centres unmarked) [Example 570]: 95 °C and less than 0.3 µM.
For `COc1cc(F)cc(C(OC2CCN(C)CC2)c2nc3ccccc3[nH]2)c1O` (centres unmarked) [Example 610], the melting point was 108 °C. The Ki or IC50 activity class in data set [1] is less than 1 µM.
Take `COc1ccc(COc2cccc(C(NC3CCN(C)CC3)c3nc4ccccc4[nH]3)c2)cc1` (centres unmarked) [Example 124, {(1H-benzimidazol-2-yl)[3-(4-methoxybenzyloxy)phenyl]methyl}(1-methylpiperidin-4-yl)amine]: the melting point was determined as 84 °C. For the same molecule, in data set [1], the Ki or IC50 activity class was less than 0.03 µM.
The matching figures for `CN1CCC(OC(c2nc3ccccc3[nH]2)c2cccc3cc[nH]c23)CC1` (centres unmarked) [Example 577]: 110 °C and less than 0.3 µM.
The matching figures for `CN1CCC(OC(c2nc3ccccc3[nH]2)c2cc(F)ccc2O)CC1` (centres unmarked) [Example 572]: 142 °C and less than 0.03 µM.
The matching figures for `Cc1ccc(O)c(C(OC2CCN(C)CC2)c2nc3ccccc3[nH]2)c1` (centres unmarked) [Example 578, 2-[(1H-benzimidazol-2-yl)(1-methylpiperidin-4-yloxy)methyl]-4-methylphenol]: 151 °C and less than 0.03 µM.
The molecule `CN1CCC(OC(c2nc3cc(F)c(F)cc3[nH]2)c2cc(OC(F)(F)F)ccc2F)CC1` (centres unmarked) [Example 511] gave a melting point of 79 °C. For the same molecule, the Ki or IC50 activity class in data set [1] is less than 0.3 µM.
The matching figures for `COc1cc(F)c(O)c(C(OC2CCN(C)CC2)c2nc3ccccc3[nH]2)c1` (centres unmarked) [Example 608]: 132 °C and less than 0.3 µM.
The matching figures for `Cc1ccccc1C(OC1CCN(C)CC1)c1nc2ccccc2[nH]1` (centres unmarked) [Example 193, 2-[(1-methylpiperidin-4-yloxy)-o-tolyl-methyl]-1H-benzimidazole]: 190 °C and less than 0.3 µM.
The matching figures for `CN1CCC(OC(c2cccc(Br)c2)c2nc3cc(F)c(F)c(F)c3[nH]2)CC1` (centres unmarked) [Example 481, 2-[(3-bromophenyl)(1-methylpiperidin-4-yloxy)methyl]-5,6,7-trifluoro-1H-benzimidazole]: 140 °C and less than 1 µM.
For the molecule `Cc1cc(F)cc(C(NC2CCN(C)CC2)c2nc3ccccc3s2)c1` (centres unmarked) [Example 44, [benzothiazol-2-yl(3-fluoro-5-methylphenyl)methyl](1-methylpiperidin-4-yl)amine], the melting point was 102 °C. The molecule also showed a Ki or IC50 activity class in data set [1] of less than 1 µM.
The matching figures for `CCSc1ccc(O)c(C(OC2CCN(C)CC2)c2nc3ccccc3[nH]2)c1` (centres unmarked) [Example 588]: 116 °C and less than 0.03 µM.
The matching figures for `CN1CCC(OC(c2nc3ccccc3[nH]2)c2cc(-c3ccccc3)ccc2O)CC1` (centres unmarked) [Example 589]: 140 °C and less than 1 µM.
The matching figures for `CN1CCC(OC(c2nc3ccccc3[nH]2)c2ccc(OC(F)(F)F)cc2O)CC1` (centres unmarked) [Example 621]: 133 °C and less than 0.03 µM.
On to `CN1CCC(OC(c2cccc(-c3ccn[nH]3)c2)c2nc3ccccc3s2)CC1` (centres unmarked) [Example 260, 2-{(1-methylpiperidin-4-yloxy)[3-(2H-pyrazol-3-yl)phenyl]methyl}benzothiazole], for which the melting point is 90 °C. Moreover, in data set [1], the Ki or IC50 activity class was less than 0.03 µM.
The matching figures for `Cc1ccc(COc2cccc(C(NC3CCN(C)CC3)c3nc4ccccc4[nH]3)c2)cc1` (centres unmarked) [Example 130, {(1H-benzimidazol-2-yl)[3-(4-methylbenzyloxy)phenyl]methyl}(1-methylpiperidin-4-yl)amine]: 87 °C and less than 0.3 µM.
The matching figures for `CCCOc1cccc(C(NC2CCN(C)CC2)c2nc3ccccc3[nH]2)c1` (centres unmarked) [Example 50, [(1H-benzimidazol-2-yl)(3-propoxyphenyl)methyl](1-methylpiperidin-4-yl)amine]: 143 °C and less than 0.03 µM.
In the case of `CCOC(=O)NCCCC#Cc1ccc(F)c(C(OC2CCN(C)CC2)c2nc3ccccc3[nH]2)c1` (centres unmarked) [Example 560], the melting point was found to be 87 °C. Also, in data set [1], the Ki or IC50 activity class is less than 0.3 µM.
The matching figures for `CN1CCC(OC(c2nc3ccccc3[nH]2)c2cc(OCC(F)(F)F)ccc2F)CC1` (centres unmarked) [Example 522]: 204 °C and less than 0.03 µM.
The matching figures for `CN1CCC(OC(c2nc3ccccc3[nH]2)c2c(F)cc(Cl)cc2F)CC1` (centres unmarked) [Example 527]: 195 °C and less than 0.03 µM.
As for `CN1CCC(OC(c2cccc(Br)c2)c2nc3ccccc3s2)CC1` (centres unmarked) [Example 27, 2-[(3-bromo-phenyl)(1-methylpiperidin-4-yloxy)methyl]benzothiazole], the melting point was 99 °C. The Ki or IC50 activity class in data set [1] was less than 0.03 µM.
The matching figures for `CN1CCC(NC(c2cccc(OCC3CCCCC3)c2)c2nc3ccccc3[nH]2)CC1` (centres unmarked) [Example 73, [(1H-benzimidazol-2-yl)(3-cyclohexylmethoxyphenyl)methyl](1-methylpiperidin-4-yl)amine]: 88 °C and less than 0.3 µM.
The matching figures for `CN1CCC(OC(c2nc3ccccc3[nH]2)c2cccc(F)c2O)CC1` (centres unmarked) [Example 581]: 145 °C and less than 0.03 µM.
The matching figures for `CN1CCC(OC(c2ccccc2)c2nc3ccccc3[nH]2)C1` (centres unmarked) [Example 272, 2-[(1-methylpyrrolidin-3-yloxy)phenyl-methyl]-1H-benzimidazole]: 53 °C and less than 1 µM.
As for `CN1CCC(OC(c2cccc(N=[N+]=[N-])c2)c2nc3ccccc3[nH]2)CC1` (centres unmarked) [Example 231, 2-[(3-azidophenyl)(1-methylpiperidin-4-yloxy)methyl]-1H-benzimidazole], the melting point is 53 °C. Also, the Ki or IC50 activity class in data set [1] was less than 0.3 µM.

These data come from patent US8802664B2 (Bioproject, priority 2010, dated 2014).
